From ChEMBL document CHEMBL1143022, “Free radical trapping properties of several ethyl-substituted derivatives of 5-ethoxycarbonyl-5-methyl-1-pyrroline N-oxide (EMPO)” (Bioorg Med Chem, 2007)

Assay: Partition coefficient, log P of the compound
Type: physicochemical
Conditions: octanol/water

logP | SMILES
1.34 | CCOC(=O)C1(C)C(CC)CC=[N+]1[O-] (mixture of isomers)
1.07 | CCOC(=O)C1(CC)C(C)CC=[N+]1[O-] (mixture of isomers)
1.48 | CCOC(=O)[C@@]1(CC)C[C@H](C)C=[N+]1[O-] (relative stereo)
0.15 | CCOC(=O)C1(C)CCC=[N+]1[O-] (configuration not stated)
1.67 | CCOC(=O)[C@]1(C)C[C@@H](CC)C=[N+]1[O-] (relative stereo)
1.34 | CCOC(=O)[C@@]1(CC)C[C@@H](C)C=[N+]1[O-] (relative stereo)
1.38 | CCOC(=O)[C@]1(C)C[C@H](CC)C=[N+]1[O-] (relative stereo)
